Where a SMILES comes first, the peptide text is derived from it.
Tests used:
[1] = tested on: Escherichia coli ATCC 25922; settings: radial diffusion assay, n = 3
Excerpt: (§1) The reaction mixture without defensin added was used as negative control and the defensin alone was used as positive control. […] The strain Salmonella enterica serovar Typhimurium LT2 was kindly provided by Dr Benoît Doublet (INRA, UMR1282 ISP, Nouzilly, France). The strain Streptococcus salivarius was a clinical strain isolated from blood culture, kindly provided by Dr Christine Delorme (INRA, UMR1319 MICALIS, Jouy en Josas, France).
(§2) A Mann-Whitney non-parametric U test was used to compare the minimal inhibitory concentration of each defensin before and after incubation with cathepsins.

[2] = tested on: Staphylococcus aureus ATCC 29740; settings: radial diffusion assay; defensin alone or reaction mixture after 4 h at 30°C with cathepsin (S:E molar ratio 100), 0.1 M sodium acetate pH 5.5, 2 mM DTT, 0.01% Brij35; mean ± SEM, n = 3; NI: no inhibition detected
Excerpt: as §1, §2

Human Cat H = Human Cat H (Homo sapiens, UniProt P09668); settings: 12.5 μM defensin, 125 nM Cat H (S:E 100), 0.1 M sodium acetate pH 5.5, 2 mM DTT, 0.01% Brij35, 4 h, 30°C; RP-HPLC, 220 nm
Human Cat D = Human Cat D (Homo sapiens, UniProt P07339); settings: 12.5 μM defensin, 125 nM Cat D (S:E 100), 0.1 M sodium citrate pH 3.5, 200 mM NaCl, 4 h, 30°C; RP-HPLC, 220 nm
Protocol: (§4) Chromatograms were analyzed by running the ChromoQuest Chromatography Workstation (Thermo Fisher Scientific, Les Ulis, France).

chymotrypsin [3] = settings: 12.5 μM defensin, 125 nM chymotrypsin (S:E 100), 0.1 M Tris/HCl pH 7.8, 20 mM CaCl2, 4 h, 30°C; RP-HPLC, 220 nm
Protocol: as §4

trypsin [4] = settings: 12.5 μM defensin, 125 nM trypsin (S:E 100), 0.1 M Tris/HCl pH 8.0, 50 mM CaCl2, 100 mM NaCl, 4 h, 30°C; RP-HPLC, 220 nm
Protocol: as §4

Human Cat B = Human Cat B (Homo sapiens, UniProt P07858); settings: 12.5 μM defensin, 125 nM Cat B (S:E 100), 0.1 M sodium acetate pH 5.5, 2 mM DTT, 0.01% Brij35, 4 h, 30°C; RP-HPLC, 220 nm
Human Cat S = Human Cat S (Homo sapiens, UniProt P25774); settings: 12.5 μM defensin, 125 nM Cat S (S:E 100), 0.1 M sodium acetate pH 5.5, 2 mM DTT, 0.01% Brij35, 4 h, 30°C; RP-HPLC, 220 nm
Human Cat K = Human Cat K (Homo sapiens, UniProt P43235); settings: 12.5 μM defensin, 125 nM Cat K (S:E 100), 0.1 M sodium acetate pH 5.5, 2 mM DTT, 0.01% Brij35, 4 h, 30°C; RP-HPLC, 220 nm
Human Cat L = Human Cat L (Homo sapiens, UniProt P07711); settings: 12.5 μM defensin, 125 nM Cat L (S:E 100), 0.1 M sodium acetate pH 5.5, 2 mM DTT, 0.01% Brij35, 4 h, 30°C; RP-HPLC, 220 nm
[5] = biological target: Human neutrophil elastase (HNE) (Homo sapiens, UniProt P08246); settings: 12.5 μM defensin, 125 nM HNE (S:E 100), 0.05 M HEPES pH 7.4, NP40 0.05%, 150 mM NaCl, 4 h, 30°C; RP-HPLC, 220 nm
Protocol: as §4

[6] = tested on: Pseudomonas aeruginosa ATCC 25010; assay: Radial diffusion antibacterial assay (MIC); type: cell-based; settings: Table 3, mean +/- SEM, n = 3
Protocol: (§3) The antibacterial activity of purified AvBD2 and AvBD7 and of each enzyme-AvBD reaction mixture was measured by radial diffusion assay as described previously, allowing the determination of the minimal inhibitory concentration (MIC) against Staphylococcus aureus ATCC 29740 and against Escherichia coli ATCC 25922 as representative Gram-positive and Gram-negative strains, respectively. The reaction mixture without defensin added was used as negative control and the defensin alone was used as positive control. For AvBD7 and its major degradation product, MIC was determined towards three Gram-negative and three Gram-positive bacterial strains, respectively, including Pseudomonas aeruginosa ATCC 25010, Escherichia coli ATCC 25922, Salmonella enterica serovar Typhimurium LT2 ATCC 700720, Listeria monocytogenes strain EGD, Staphylococcus aureus ATCC 29740, and Streptococcus salivarius JIM 8780. The strain Salmonella enterica serovar Typhimurium LT2 was kindly provided by Dr Benoît Doublet (INRA, UMR1282 ISP, Nouzilly, France). The strain Streptococcus salivarius was a clinical strain isolated from blood culture, kindly provided by Dr Christine Delorme (INRA, UMR1319 MICALIS, Jouy en Josas, France).

[7] = tested on: Salmonella enterica serovar Typhimurium LT2 ATCC 700720; assay: Radial diffusion antibacterial assay (MIC); type: cell-based; settings: Table 3, mean +/- SEM, n = 3
Protocol: as §3

[8] = tested on: Streptococcus salivarius JIM 8780; assay: Radial diffusion antibacterial assay (MIC); type: cell-based; settings: Table 3, mean +/- SEM, n = 3
Protocol: as §3

[9] = tested on: Listeria monocytogenes strain EGD; assay: Radial diffusion antibacterial assay (MIC); type: cell-based; settings: Table 3, mean +/- SEM, n = 3
Protocol: as §3

chymotrypsin [10] = assay: 125 nM chymotrypsin in 0.1 M Tris/HCl buffer, pH 7.8, 20 mM CaCl2; settings: 30°C, up to 4 h
trypsin [11] = assay: 125 nM trypsin in 0.1 M Tris/HCl buffer, pH 8.0, 50 mM CaCl2, 100 mM NaCl; settings: 30°C, up to 4 h
Cat D = assay: 125 nM Cat D in 0.1 M sodium citrate buffer, pH 3.5, 200 mM NaCl; settings: human, 30°C, up to 4 h
Cat H = assay: 125 nM Cat H in 0.1 M sodium acetate buffer, pH 5.5 containing 2 mM DTT and 0.01% Brij35; settings: human, 30°C, up to 4 h
[12] = tested on: Human neutrophil elastase (HNE); assay: 125 nM HNE in 0.05 M HEPES buffer, pH 7.4, NP40 0.05% 150 mM NaCl; settings: 30°C, up to 4 h
Cat K = assay: 125 nM Cat K in 0.1 M sodium acetate buffer, pH 5.5 containing 2 mM DTT and 0.01% Brij35; settings: human, 30°C, up to 4 h
Cat S = assay: 125 nM Cat S in 0.1 M sodium acetate buffer, pH 5.5 containing 2 mM DTT and 0.01% Brij35; settings: human, 30°C, up to 4 h
Cat L = assay: 125 nM Cat L in 0.1 M sodium acetate buffer, pH 5.5 containing 2 mM DTT and 0.01% Brij35; settings: human, 30°C, up to 4 h
Cat B = assay: 125 nM Cat B in 0.1 M sodium acetate buffer, pH 5.5 containing 2 mM DTT and 0.01% Brij35; settings: human, 30°C, up to 4 h

Human Cat S, sequence (P25774 115-331): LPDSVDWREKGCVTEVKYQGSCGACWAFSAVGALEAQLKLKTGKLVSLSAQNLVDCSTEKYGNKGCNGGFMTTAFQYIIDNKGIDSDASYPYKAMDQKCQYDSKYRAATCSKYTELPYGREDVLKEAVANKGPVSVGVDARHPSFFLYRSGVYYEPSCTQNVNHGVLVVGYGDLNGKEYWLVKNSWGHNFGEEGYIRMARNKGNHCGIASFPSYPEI
Human neutrophil elastase (HNE) (Homo sapiens, UniProt P08246), sequence (P08246 30-267): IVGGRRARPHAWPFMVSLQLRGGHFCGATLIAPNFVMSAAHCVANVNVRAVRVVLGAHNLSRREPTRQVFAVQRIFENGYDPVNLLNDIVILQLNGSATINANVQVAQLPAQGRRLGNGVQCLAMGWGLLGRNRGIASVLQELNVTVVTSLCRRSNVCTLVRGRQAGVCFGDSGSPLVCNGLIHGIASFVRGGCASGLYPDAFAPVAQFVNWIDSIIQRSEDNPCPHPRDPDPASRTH
Human Cat K, sequence (P43235 115-329): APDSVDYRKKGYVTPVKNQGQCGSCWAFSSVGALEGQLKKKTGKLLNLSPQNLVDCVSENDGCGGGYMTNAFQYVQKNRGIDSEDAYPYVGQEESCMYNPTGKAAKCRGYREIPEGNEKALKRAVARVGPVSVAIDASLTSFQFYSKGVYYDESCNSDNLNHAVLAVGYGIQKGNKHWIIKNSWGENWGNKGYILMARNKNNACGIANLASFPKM
Human Cat L, sequence (P07711 114-333): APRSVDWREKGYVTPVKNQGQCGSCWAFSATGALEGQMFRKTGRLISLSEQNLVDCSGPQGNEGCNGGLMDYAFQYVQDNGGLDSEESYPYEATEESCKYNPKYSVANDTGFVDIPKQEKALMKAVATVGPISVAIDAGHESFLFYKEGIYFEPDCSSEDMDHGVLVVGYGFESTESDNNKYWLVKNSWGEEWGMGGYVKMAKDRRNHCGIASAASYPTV
Human Cat H, sequence (P09668 98-335): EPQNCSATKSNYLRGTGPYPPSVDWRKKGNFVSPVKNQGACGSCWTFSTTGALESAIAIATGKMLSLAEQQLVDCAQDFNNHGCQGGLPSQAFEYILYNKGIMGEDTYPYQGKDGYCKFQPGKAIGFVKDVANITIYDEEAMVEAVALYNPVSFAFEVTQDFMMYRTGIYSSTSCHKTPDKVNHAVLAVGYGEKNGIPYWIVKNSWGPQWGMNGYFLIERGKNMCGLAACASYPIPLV
Human Cat D, sequence (P07339 65-412): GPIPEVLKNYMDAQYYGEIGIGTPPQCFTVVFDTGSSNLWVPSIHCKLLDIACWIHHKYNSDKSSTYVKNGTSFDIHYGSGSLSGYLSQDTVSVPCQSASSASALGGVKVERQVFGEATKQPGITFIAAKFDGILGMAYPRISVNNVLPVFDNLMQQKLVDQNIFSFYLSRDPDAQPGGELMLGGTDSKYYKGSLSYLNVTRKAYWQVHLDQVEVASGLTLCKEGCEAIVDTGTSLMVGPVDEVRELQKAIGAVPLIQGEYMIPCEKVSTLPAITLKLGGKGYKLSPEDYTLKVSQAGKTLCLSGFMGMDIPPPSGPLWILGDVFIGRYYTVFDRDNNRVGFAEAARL

CC[C@H](C)[C@@H]1NC(=O)[C@H](CC(C)C)NC(=O)[C@H](Cc2c[nH]cn2)NC(=O)[C@H](CO)NC(=O)[C@@H]2CCCN2C(=O)[C@@H]2CSSC[C@@H](C(=O)N[C@@H](CCCCN)C(=O)N[C@@H](Cc3c[nH]c4ccccc34)C(=O)N3CCC[C@H]3C(=O)N[C@@H](Cc3c[nH]c4ccccc34)C(=O)N[C@@H](CC(N)=O)C(=O)N[C@@H](C)C(=O)O)NC(=O)[C@@H]3CSSC[C@H](NC(=O)[C@H](Cc4ccccc4)NC(=O)[C@@H](N)CC(C)C)C(=O)N[C@@H](CCCCN)C(=O)NCC(=O)NCC(=O)N[C@@H](CO)C(=O)N[C@@H](CSSC[C@H](NC(=O)[C@H](CO)NC(=O)CNC(=O)[C@H](C(C)C)NC(=O)[C@H](CCCCN)NC1=O)C(=O)N[C@@H](Cc1ccccc1)C(=O)NCC(=O)N[C@@H](Cc1ccccc1)C(=O)N[C@@H](CCCNC(=N)N)C(=O)N[C@@H](CO)C(=O)N3)C(=O)N[C@@H](Cc1c[nH]cn1)C(=O)N[C@@H](Cc1ccccc1)C(=O)NCC(=O)NCC(=O)N2 [AvBD2] (HELM PEPTIDE1{L.F.C.K.G.G.S.C.H.F.G.G.C.P.S.H.L.I.K.V.G.S.C.F.G.F.R.S.C.C.K.W.P.W.N.A}$PEPTIDE1,PEPTIDE1,3:R3-29:R3|PEPTIDE1,PEPTIDE1,8:R3-23:R3|PEPTIDE1,PEPTIDE1,13:R3-30:R3$$$V2.0)
MIC (μM) E. Coli ([1]; defensin alone or reaction mixture after 4 h at 30°C with cathepsin (S:E molar ratio 100), 0.1 M sodium acetate pH 5.5, 2 mM DTT, 0.01% Brij35, mean ± SEM, NI: no inhibition detected): 3 ± 2 µM | MIC (μM) S. aureus [2]: 1 ± 0 µM | Hydrolysis by Cat H (Human Cat H): resistant to hydrolysis | Hydrolysis by Cat D (Human Cat D): did not cleave | Hydrolysis by chymotrypsin (chymotrypsin [3]): did not cleave | Hydrolysis by trypsin (trypsin [4]): did not cleave | Hydrolysis by Cat B (Human Cat B): partially degraded | Hydrolysis by Cat S (Human Cat S): partially degraded | Hydrolysis by Cat K (Human Cat K): totally digested | Hydrolysis by Cat L (Human Cat L): partially degraded | Hydrolysis by neutrophil elastase [5]: did not cleave

CC[C@H](C)[C@H](N)C(=O)N1CCC[C@H]1C(=O)N[C@@H](CCCNC(=N)N)C(=O)N1CCC[C@H]1C(=O)N[C@H](C(=O)N[C@@H](CC(=O)O)C(=O)N[C@H](C(=O)N[C@H]1CSSC[C@@H]2NC(=O)[C@H](CO)NC(=O)CNC(=O)[C@H]([C@@H](C)CC)NC(=O)CNC(=O)[C@H](CC(N)=O)NC(=O)[C@H](CC(N)=O)NC(=O)[C@@H]3CSSC[C@H](NC(=O)[C@H]([C@@H](C)CC)NC(=O)CNC(=O)[C@H](CC(N)=O)NC(=O)[C@H](CCCNC(=N)N)NC(=O)[C@H](CC(C)C)NC(=O)[C@H](CCCNC(=N)N)NC1=O)C(=O)N[C@@H](Cc1ccccc1)C(=O)N1CCC[C@H]1C(=O)NCC(=O)N[C@@H]([C@@H](C)CC)C(=O)N[C@@H](CSSC[C@@H](C(=O)N[C@@H](C)C(=O)N[C@@H](CCCNC(=N)N)C(=O)NCC(=O)N[C@@H](Cc1c[nH]c4ccccc14)C(=O)N[C@@H](CCCNC(=N)N)C(=O)N[C@@H](CO)C(=O)O)NC2=O)C(=O)N[C@@H](CCCNC(=N)N)C(=O)N[C@@H](CCCNC(=N)N)C(=O)N1CCC[C@H]1C(=O)N[C@@H](Cc1ccc(O)cc1)C(=O)N[C@@H](Cc1ccc(O)cc1)C(=O)N[C@@H](Cc1c[nH]c2ccccc12)C(=O)N[C@@H]([C@@H](C)CC)C(=O)NCC(=O)N[C@@H]([C@@H](C)O)C(=O)N3)[C@@H](C)O)[C@@H](C)CC [Ile4-AvBD7]
MIC (μM) Escherichia coli ([1]; Table 3, mean +/- SEM): 0.5 (± 0.1) μM | MIC (μM) Pseudomonas aeruginosa [6]: 0.2 (± 0.1) μM | MIC (μM) Salmonella Typhimurium [7]: 1.4 (± 0.9) μM | MIC (μM) Streptococcus salivarius [8]: 1.0 (± 0.5) μM | MIC (μM) Listeria monocytogenes [9]: 0.2 (± 0.1) μM

LFCKGGSCHFGGCPSHLIKVGSCFGFRSCCKWPWNA
not cleaved (chymotrypsin [10]): did not cleave (4 hours) | not cleaved (trypsin [11]): did not cleave (4 hours) | not cleaved (Cat D): did not cleave (4 hours) | not cleaved (Cat H): resistant to hydrolysis (4 h) | not cleaved [12]: did not cleave (4 hours)

QPFIPRPIDTCRLRNGICFPGICRRPYYWIGTCNNGIGSCCARGWRS
not cleaved (chymotrypsin [10]): did not cleave (4 hours) | not cleaved (trypsin [11]): did not cleave (4 hours) | cleaved bond (Cat K): Phe3-Ile4 | not cleaved (Cat D): did not cleave (4 hours) | not cleaved (Cat H): resistant to hydrolysis (4 h) | not cleaved [12]: did not cleave (4 hours) | not cleaved (Cat S): fully resistant to hydrolysis (4 h) | not cleaved (Cat L): fully resistant to hydrolysis (4 h) | not cleaved (Cat B): fully resistant to hydrolysis (4 h)
